# Assay results: ChEMBL document CHEMBL4800722, “Data for DCP probe BI 605906” (2021)
# Legend:
# [1] = target: Cyclin-dependent kinase 13/Cyclin-K (Homo sapiens) (UniProt Q14004+O75909); assay: CDK13/CYCLIN K Invitrogen Lab (UK) kinase screen (BI); type: protein-complex assay; details: Compound concentration 1.0 uM
# [2] = target: Cyclin-dependent kinase-like 5 (Homo sapiens) (UniProt O76039); assay: CDKL5 Invitrogen Lab (UK) kinase screen (BI); details: Compound concentration 1.0 uM
# [3] = target: NUAK family SNF1-like kinase 2 (Homo sapiens) (UniProt Q9H093); assay: NUAK2 Invitrogen Lab (UK) kinase screen (BI); details: Compound concentration 1.0 uM
# Homo sapiens = species: Homo sapiens; assay: PIK3CA/PIK3R3 Invitrogen Lab (UK) kinase screen (BI); details: Compound concentration 1.0 uM
# [4] = target: Phosphatidylinositol 4-phosphate 5-kinase type-1 alpha (Homo sapiens) (UniProt Q99755); assay: PIP5K1A Invitrogen Lab (UK) kinase screen (BI); details: Compound concentration 1.0 uM
# [5] = target: Tyrosine-protein kinase Blk (Homo sapiens) (UniProt P51451); assay: BLK Invitrogen Lab (UK) kinase screen (BI); details: Compound concentration 1.0 uM
# [6] = target: CDK9/Cyclin K (Homo sapiens) (UniProt P50750+O75909); assay: CDK9_CYCLINK Invitrogen Lab (UK) kinase screen (BI); type: protein-complex assay; details: Compound concentration 1.0 uM
# [7] = target: Ephrin type-B receptor 1 (Homo sapiens) (UniProt P54762); assay: EPHB1 Invitrogen Lab (UK) kinase screen (BI); details: Compound concentration 1.0 uM
# [8] = target: Leucine-rich repeat serine/threonine-protein kinase 2 (Homo sapiens) (UniProt Q5S007); assay: LRRK2_FL Invitrogen Lab (UK) kinase screen (BI); details: Compound concentration 1.0 uM
# [9] = target: PAS domain-containing serine/threonine-protein kinase (Homo sapiens) (UniProt Q96RG2); assay: PASK Invitrogen Lab (UK) kinase screen (BI); details: Compound concentration 1.0 uM
# [10] = target: Proto-oncogene tyrosine-protein kinase receptor Ret (Homo sapiens) (UniProt P07949); assay: RET Invitrogen Lab (UK) kinase screen (BI)
# [11] = target: Serine/threonine-protein kinase 17A (Homo sapiens) (UniProt Q9UEE5); assay: STK17A Invitrogen Lab (UK) kinase screen (BI); details: Compound concentration 1.0 uM
# [12] = target: Mitogen-activated protein kinase 15 (Homo sapiens) (UniProt Q8TD08); assay: ERK8 DUNDEE kinase screen (BI); details: Compound concentration 10.0 uM
# [13] = target: Mitogen-activated protein kinase 1 (Homo sapiens) (UniProt P28482); assay: MAPK2ERK2 DUNDEE kinase screen (BI); details: Mus musculus; Compound concentration 10.0 uM
# [14] = target: cAMP-dependent protein kinase (PKA) (Homo sapiens) (UniProt P22694+P17612+P22612); assay: PKA(REC) DUNDEE kinase screen (BI); type: protein assay; details: Compound concentration 10.0 uM
# [15] = target: Serine/threonine-protein kinase PLK1 (Homo sapiens) (UniProt P53350); assay: PLK1 DUNDEE kinase screen (BI); details: Compound concentration 10.0 uM
# [16] = target: Myosin light chain kinase, smooth muscle (Homo sapiens) (UniProt Q15746); assay: SMMLCK DUNDEE kinase screen (BI); details: Compound concentration 10.0 uM
# [17] = target: 5-hydroxytryptamine receptor 1A (Homo sapiens) (UniProt P08908); details: Compound concentration 10.0 uM
# [18] = target: 5-hydroxytryptamine receptor 5A (Homo sapiens) (UniProt P47898); details: Compound concentration 10.0 uM
# [19] = target: Sodium-dependent dopamine transporter (Homo sapiens, UniProt Q01959); details: Compound concentration 10.0 uM
# [20] = target: Alpha-1D adrenergic receptor (Homo sapiens) (UniProt P25100); details: Compound concentration 10.0 uM
# [21] = target: Calcium/calmodulin-dependent protein kinase type II subunit gamma (Homo sapiens) (UniProt Q13555); details: Compound concentration 1.0 uM
# [22] = target: Cyclin-dependent kinase 19 (Homo sapiens) (UniProt Q9BWU1); details: Compound concentration 1.0 uM
# [23] = target: Phosphatidylinositol 4-kinase type 2-alpha (Homo sapiens) (UniProt Q9BTU6); details: Compound concentration 1.0 uM
# [24] = target: Phosphatidylinositol 4-phosphate 5-kinase type-1 beta (Homo sapiens) (UniProt O14986); details: Compound concentration 1.0 uM
# [25] = target: Activin receptor type-1B (Homo sapiens) (UniProt P36896)
# [26] = target: Aurora kinase C (Homo sapiens) (UniProt Q9UQB9); details: Compound concentration 1.0 uM
# [27] = target: Calcium/calmodulin-dependent protein kinase type 1 (Homo sapiens) (UniProt Q14012); details: Compound concentration 1.0 uM
# [28] = target: Cyclin-dependent kinase 2/cyclin A (Homo sapiens) (UniProt P24941+P20248+P78396); details: Compound concentration 1.0 uM
# [29] = target: Cyclin-dependent kinase 5/CDK5 activator 1 (Homo sapiens) (UniProt Q00535+Q15078); details: Compound concentration 1.0 uM
# [30] = target: Dual specificity protein kinase CLK1 (Homo sapiens) (UniProt P49759); details: Compound concentration 1.0 uM
# [31] = target: Ephrin type-A receptor 1 (Homo sapiens) (UniProt P21709); details: Compound concentration 1.0 uM
# [32] = target: Fibroblast growth factor receptor 2 (Homo sapiens) (UniProt P21802); details: Compound concentration 1.0 uM
# [33] = target: Tyrosine-protein kinase FRK (Homo sapiens) (UniProt P42685); details: Compound concentration 1.0 uM
# [34] = target: Insulin-like growth factor 1 receptor (Homo sapiens) (UniProt P08069)
# [35] = target: Mitogen-activated protein kinase kinase kinase 2 (Homo sapiens) (UniProt Q9Y2U5); details: Compound concentration 1.0 uM
# [36] = target: Mitogen-activated protein kinase 1 (Homo sapiens) (UniProt P28482)
# [37] = target: Mitogen-activated protein kinase 9 (Homo sapiens) (UniProt P45984); details: Compound concentration 1.0 uM
# [38] = target: Myosin light chain kinase 2, skeletal/cardiac muscle (Homo sapiens) (UniProt Q9H1R3); details: Compound concentration 1.0 uM
# [39] = target: Platelet-derived growth factor receptor beta (Homo sapiens) (UniProt P09619)
# [40] = target: Tyrosine-protein kinase Srms (Homo sapiens) (UniProt Q9H3Y6); details: Compound concentration 1.0 uM
# [41] = target: TGF-beta receptor type-1 (Homo sapiens) (UniProt P36897); details: Compound concentration 1.0 uM
# [42] = target: Serine/threonine-protein kinase D1 (Homo sapiens) (UniProt Q15139); assay: PKD1 DUNDEE kinase screen (BI); details: Compound concentration 10.0 uM
# Sequence of Mitogen-activated protein kinase 1 (Homo sapiens) (P28482 whole entry): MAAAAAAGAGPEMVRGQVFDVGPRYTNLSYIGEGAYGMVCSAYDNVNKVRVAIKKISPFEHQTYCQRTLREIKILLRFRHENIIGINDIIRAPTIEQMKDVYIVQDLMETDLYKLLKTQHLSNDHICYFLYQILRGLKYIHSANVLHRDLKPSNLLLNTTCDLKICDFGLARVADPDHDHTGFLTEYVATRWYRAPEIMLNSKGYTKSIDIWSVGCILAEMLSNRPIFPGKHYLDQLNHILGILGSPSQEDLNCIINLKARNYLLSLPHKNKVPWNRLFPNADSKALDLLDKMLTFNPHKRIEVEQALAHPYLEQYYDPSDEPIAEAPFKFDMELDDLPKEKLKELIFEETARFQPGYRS
# Sequence of Proto-oncogene tyrosine-protein kinase receptor Ret (Homo sapiens) (P07949 whole entry): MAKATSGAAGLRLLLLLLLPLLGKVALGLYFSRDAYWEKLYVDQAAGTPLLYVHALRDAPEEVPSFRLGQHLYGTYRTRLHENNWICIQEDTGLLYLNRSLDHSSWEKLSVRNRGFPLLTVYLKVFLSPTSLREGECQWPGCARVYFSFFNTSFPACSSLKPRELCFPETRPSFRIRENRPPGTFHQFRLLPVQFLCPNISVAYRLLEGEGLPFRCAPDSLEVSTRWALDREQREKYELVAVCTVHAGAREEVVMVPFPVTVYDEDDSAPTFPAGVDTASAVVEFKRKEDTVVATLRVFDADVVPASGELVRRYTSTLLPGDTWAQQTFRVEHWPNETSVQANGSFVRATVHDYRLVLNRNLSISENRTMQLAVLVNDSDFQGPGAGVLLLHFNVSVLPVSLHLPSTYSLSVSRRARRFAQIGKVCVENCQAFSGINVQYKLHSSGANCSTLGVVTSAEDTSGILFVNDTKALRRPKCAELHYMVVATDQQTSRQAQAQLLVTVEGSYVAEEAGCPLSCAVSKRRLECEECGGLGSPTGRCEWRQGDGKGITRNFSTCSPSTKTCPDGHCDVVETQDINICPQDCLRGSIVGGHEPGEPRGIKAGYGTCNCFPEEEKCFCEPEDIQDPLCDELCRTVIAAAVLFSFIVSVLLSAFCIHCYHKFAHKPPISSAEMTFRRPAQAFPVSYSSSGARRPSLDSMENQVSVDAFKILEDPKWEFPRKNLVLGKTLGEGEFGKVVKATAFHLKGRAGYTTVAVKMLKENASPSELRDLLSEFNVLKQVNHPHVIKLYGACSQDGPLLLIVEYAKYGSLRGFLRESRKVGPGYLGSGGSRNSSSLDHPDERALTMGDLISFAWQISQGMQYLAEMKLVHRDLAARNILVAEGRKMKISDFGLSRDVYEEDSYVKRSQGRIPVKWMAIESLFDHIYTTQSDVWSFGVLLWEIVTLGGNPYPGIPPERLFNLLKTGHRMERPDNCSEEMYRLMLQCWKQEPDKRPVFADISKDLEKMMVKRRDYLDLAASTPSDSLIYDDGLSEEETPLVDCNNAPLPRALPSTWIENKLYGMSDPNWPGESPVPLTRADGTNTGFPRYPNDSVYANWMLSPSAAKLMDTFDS
# Sequence of Insulin-like growth factor 1 receptor (Homo sapiens) (P08069 31-736 limits assumed): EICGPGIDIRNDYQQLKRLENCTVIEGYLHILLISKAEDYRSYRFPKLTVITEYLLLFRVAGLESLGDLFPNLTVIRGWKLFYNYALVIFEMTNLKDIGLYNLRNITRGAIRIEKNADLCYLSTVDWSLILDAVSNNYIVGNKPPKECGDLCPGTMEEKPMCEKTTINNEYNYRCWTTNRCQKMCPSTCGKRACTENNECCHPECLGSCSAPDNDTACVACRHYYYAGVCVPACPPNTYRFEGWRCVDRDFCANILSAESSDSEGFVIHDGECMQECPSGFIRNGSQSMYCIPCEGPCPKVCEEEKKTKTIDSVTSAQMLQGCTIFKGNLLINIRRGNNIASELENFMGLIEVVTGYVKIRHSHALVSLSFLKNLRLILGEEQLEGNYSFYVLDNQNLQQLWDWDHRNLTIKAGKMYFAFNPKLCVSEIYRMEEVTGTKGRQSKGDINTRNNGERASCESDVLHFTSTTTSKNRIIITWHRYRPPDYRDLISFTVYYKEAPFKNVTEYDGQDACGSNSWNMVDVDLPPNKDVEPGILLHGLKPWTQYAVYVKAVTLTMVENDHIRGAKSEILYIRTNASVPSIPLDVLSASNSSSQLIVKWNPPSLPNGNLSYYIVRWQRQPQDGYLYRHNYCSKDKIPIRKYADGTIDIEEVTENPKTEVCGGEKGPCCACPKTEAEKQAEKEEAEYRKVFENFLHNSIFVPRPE
# Sequence of Insulin-like growth factor 1 receptor (Homo sapiens) (P08069 741-1367 limits assumed): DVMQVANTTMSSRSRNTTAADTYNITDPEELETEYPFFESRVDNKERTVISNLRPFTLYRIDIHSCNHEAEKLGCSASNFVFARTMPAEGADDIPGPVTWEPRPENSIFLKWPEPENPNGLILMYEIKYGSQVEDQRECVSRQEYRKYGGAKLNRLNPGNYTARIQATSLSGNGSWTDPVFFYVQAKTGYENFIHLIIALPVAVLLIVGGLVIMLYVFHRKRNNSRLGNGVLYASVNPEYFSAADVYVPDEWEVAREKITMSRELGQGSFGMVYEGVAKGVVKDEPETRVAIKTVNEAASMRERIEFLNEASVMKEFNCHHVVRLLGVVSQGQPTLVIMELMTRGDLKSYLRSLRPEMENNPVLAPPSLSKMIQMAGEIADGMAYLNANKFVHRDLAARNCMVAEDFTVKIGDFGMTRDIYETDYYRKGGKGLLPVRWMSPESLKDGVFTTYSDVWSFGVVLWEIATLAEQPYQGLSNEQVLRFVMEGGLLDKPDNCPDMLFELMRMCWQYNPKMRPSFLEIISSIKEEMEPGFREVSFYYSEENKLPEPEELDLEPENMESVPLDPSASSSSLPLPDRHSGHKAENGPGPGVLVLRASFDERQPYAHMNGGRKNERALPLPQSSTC
# Sequence of Platelet-derived growth factor receptor beta (Homo sapiens) (P09619 whole entry): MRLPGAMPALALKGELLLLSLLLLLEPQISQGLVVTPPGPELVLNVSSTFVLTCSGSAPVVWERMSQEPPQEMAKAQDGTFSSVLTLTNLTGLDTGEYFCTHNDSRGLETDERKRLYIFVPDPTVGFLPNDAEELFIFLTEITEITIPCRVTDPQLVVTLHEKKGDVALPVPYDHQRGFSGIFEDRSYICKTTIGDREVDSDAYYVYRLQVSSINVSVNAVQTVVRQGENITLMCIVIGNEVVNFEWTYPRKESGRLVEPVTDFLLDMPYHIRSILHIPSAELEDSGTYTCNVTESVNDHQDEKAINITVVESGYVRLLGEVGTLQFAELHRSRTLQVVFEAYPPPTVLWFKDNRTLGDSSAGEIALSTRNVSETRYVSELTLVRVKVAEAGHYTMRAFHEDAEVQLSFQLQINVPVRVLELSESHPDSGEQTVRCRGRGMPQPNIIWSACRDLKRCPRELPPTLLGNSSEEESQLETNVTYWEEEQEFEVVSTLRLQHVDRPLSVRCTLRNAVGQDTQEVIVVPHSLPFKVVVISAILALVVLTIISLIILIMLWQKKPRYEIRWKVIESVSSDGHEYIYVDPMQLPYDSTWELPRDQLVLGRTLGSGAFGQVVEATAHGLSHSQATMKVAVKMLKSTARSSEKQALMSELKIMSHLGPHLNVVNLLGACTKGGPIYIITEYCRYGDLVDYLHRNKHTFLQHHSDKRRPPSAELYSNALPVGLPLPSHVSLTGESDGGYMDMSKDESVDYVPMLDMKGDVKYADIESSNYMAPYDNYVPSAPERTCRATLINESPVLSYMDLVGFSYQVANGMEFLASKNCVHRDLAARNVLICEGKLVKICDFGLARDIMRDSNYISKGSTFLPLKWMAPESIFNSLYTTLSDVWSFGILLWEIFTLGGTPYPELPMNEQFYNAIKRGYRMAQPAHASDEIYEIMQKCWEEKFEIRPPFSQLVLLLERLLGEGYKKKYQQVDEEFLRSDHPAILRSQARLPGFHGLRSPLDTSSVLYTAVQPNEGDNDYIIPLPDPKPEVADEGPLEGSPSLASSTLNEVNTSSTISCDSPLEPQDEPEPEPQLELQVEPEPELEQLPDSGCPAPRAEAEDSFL
# Sequence of Activin receptor type-1B (Homo sapiens) (P36896 whole entry): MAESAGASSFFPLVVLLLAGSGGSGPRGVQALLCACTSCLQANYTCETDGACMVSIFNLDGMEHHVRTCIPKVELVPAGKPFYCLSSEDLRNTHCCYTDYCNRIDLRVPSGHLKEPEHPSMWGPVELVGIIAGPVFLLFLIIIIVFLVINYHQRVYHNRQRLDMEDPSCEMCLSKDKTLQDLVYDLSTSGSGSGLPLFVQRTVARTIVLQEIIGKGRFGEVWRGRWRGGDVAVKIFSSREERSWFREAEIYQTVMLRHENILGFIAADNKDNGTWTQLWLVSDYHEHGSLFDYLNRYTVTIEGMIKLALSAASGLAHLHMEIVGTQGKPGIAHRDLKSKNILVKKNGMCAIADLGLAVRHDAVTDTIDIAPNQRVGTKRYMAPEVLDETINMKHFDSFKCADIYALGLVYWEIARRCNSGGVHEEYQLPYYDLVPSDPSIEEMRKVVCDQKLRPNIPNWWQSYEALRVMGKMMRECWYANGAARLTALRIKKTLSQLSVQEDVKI
# Sequence of Serine/threonine-protein kinase PLK1 (Homo sapiens) (P53350 whole entry): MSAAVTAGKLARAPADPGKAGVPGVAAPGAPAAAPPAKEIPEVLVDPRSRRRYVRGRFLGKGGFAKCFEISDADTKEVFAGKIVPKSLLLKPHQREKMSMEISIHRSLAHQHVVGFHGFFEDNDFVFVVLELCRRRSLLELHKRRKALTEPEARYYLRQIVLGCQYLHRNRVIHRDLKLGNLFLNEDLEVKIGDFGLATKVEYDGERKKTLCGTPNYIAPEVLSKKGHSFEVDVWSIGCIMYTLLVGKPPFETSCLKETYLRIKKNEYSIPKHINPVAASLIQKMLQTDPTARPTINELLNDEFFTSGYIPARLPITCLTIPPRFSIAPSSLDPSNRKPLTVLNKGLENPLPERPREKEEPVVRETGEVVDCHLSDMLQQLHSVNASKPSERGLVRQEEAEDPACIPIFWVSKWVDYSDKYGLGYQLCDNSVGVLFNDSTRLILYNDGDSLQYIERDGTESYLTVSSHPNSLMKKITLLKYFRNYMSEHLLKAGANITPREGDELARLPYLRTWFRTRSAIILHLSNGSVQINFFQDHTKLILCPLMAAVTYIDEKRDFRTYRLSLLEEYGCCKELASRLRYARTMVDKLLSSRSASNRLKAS
structure (smiles),measurement,setting,value
CCC(F)(F)c1cc(N2CCC(S(C)(=O)=O)CC2)nc2sc(C(N)=O)c(N)c12 [BI-605906],residual activity,[1],85%
same,residual activity,[2],103%
same,residual activity,[3],86%
same,residual activity,Homo sapiens,103%
same,residual activity,[4],83%
same,residual activity,[5],88%
same,residual activity,[6],88%
same,residual activity,[7],85%
same,residual activity,[8],62%
same,residual activity,[9],106%
same,residual activity,[10]; Compound concentration 1.0 uM,60%
same,residual activity,[10]; Compound concentration 10.0 uM,32%
same,residual activity,[11],80%
same,residual activity,[12],63.2%
same,residual activity,[13],90.1%
same,residual activity,[14],61.7%
same,residual activity,[15],86.8%
same,residual activity,[16],57.7%
same,inhibition,[17],14.4%
same,inhibition,[18],6.16%
same,inhibition,[19],2.35%
same,inhibition,[20],36.7%
same,residual activity,[21],90%
same,residual activity,[22],87%
same,residual activity,[23],92%
same,residual activity,[24],108%
same,residual activity,[25]; Compound concentration 1.0 uM,96%
same,residual activity,[25]; Compound concentration 10.0 uM,105%
same,residual activity,[26],95%
same,residual activity,[27],109%
same,residual activity,[28],90%
same,residual activity,[29],97%
same,residual activity,[30],92%
same,residual activity,[31],82%
same,residual activity,[32],94%
same,residual activity,[33],92%
same,residual activity,[34]; Compound concentration 1.0 uM,95%
same,residual activity,[34]; Compound concentration 10.0 uM,99%
same,residual activity,[35],92%
same,residual activity,[36]; Compound concentration 1.0 uM,92%
same,residual activity,[36]; Compound concentration 10.0 uM,101%
same,residual activity,[37],98%
same,residual activity,[38],98%
same,residual activity,[39]; Compound concentration 1.0 uM,89%
same,residual activity,[39]; Compound concentration 10.0 uM,87%
same,residual activity,[40],99%
same,residual activity,[41],94%
same,residual activity,[42],93.5%
